Earlier results in patent US20050123615A1, “Controlled release dosage forms of azithromycin” (Pfizer Inc, priority 2003, published 2005).

Details: 3,995 human patients, all dose levels combined, oral

CC[C@H]1OC(=O)[C@H](C)[C@@H](O[C@H]2C[C@@](C)(OC)[C@@H](O)[C@H](C)O2)[C@H](C)[C@@H](O[C@@H]2O[C@H](C)C[C@H](N(C)C)[C@H]2O)[C@](C)(O)C[C@@H](C)CN(C)[C@H](C)[C@@H](O)[C@]1(C)O [azithromycin, 9a-aza-9a-methyl-9-deoxo-9a-homoerythromycin A]
patients reporting GI side effects: 9.6%
patients reporting abdominal pain: 2.5%
patients reporting diarrhea: 3.6%
patients reporting nausea: 2.6%
